Calls of active or inactive are those of the source. No cut-off for these calls is given here.
How the values were obtained:
[1] = Permeability of the compound by PAMPA; assay type: physicochemical; details: read-out: permeability
[2] = Antioxidant activity assessed as oxygen radical absorbance capacity after 15 mins fluorescence assay relative to trolox; assay type: functional
Acetylcholinesterase = Acetylcholinesterase (Homo sapiens, UniProt P22303)
Description: Inhibition of human recombinant AchE using acetylthiocholine iodide as substrate incubated for 5 mins prior to substrate addition measured after 5 mins by Ellman method

SH-SY5Y [3] = assay: Neuroprotective activity in human SH-SY5Y cells assessed as protection from rotenone/oligomycin A-induced mitochondrial ROS at 1 uM incubated for 24 hrs prior to rotenone/oligomycin A challenge measured after 24 hrs by LDH assay; assay type: functional
[4] = Cytotoxicity against human SH-SY5Y cells assessed as cell viability at 1 uM after 24 hrs by LDH assay relative to control; assay type: cell-based; details: read-out: Activity
Rattus norvegicus [5] = organism: Rattus norvegicus; assay: Neurogenic activity in Wistar rat Primary neural stem cells assessed as cell maturation by measuring MAP-2 at 10 uM after 48 hrs by DAPI staining-based immunohistochemistry; assay type: functional
SH-SY5Y [6] = assay: Cytotoxicity against human SH-SY5Y cells at 10 uM after 48 hrs by LDH assay relative to control; assay type: cell-based
SH-SY5Y [7] = assay: Cytotoxicity against human SH-SY5Y cells at 10 uM after 48 hrs by MTT assay relative to control; assay type: cell-based
Rattus norvegicus [8] = organism: Rattus norvegicus; assay: Neurogenic activity in Wistar rat Primary neural stem cells assessed as cell maturation by measuring TuJ1 at 10 uM after 48 hrs by DAPI staining-based immunohistochemistry; assay type: functional
Homo sapiens = organism: Homo sapiens; assay: Inhibition of human BuChE using butyrylthiocholine as substrate at 10 uM incubated for 5 mins prior to substrate addition measured after 5 mins by Ellman method

Acetylcholinesterase, sequence (P22303 whole entry): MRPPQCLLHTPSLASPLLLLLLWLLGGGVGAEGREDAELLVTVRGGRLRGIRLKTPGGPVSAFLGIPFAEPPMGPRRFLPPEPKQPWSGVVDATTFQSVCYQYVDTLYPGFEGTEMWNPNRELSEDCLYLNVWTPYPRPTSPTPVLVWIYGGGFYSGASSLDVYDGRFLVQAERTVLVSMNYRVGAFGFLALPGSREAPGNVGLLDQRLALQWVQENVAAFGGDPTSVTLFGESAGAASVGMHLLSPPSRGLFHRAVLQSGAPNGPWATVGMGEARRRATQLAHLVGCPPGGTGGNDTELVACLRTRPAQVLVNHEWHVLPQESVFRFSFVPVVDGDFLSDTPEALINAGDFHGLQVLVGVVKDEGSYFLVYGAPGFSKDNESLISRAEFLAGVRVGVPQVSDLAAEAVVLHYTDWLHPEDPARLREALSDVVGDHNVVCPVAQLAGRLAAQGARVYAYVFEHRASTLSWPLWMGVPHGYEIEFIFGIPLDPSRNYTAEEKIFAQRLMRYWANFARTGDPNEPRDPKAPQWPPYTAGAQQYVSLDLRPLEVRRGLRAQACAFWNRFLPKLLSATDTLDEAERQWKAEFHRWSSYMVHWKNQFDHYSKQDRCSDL

| SMILES | Papp [1] [nm/s] | Activity [2] | IC50 (Acetylcholinesterase) [µM] | Activity (SH-SY5Y [3]) [%] | viability at 24 h, 1 µM [4] [%] | Activity (Rattus norvegicus [5]) | Activity (SH-SY5Y [6]) | Activity (SH-SY5Y [7]) | Activity (Rattus norvegicus [8]) | inhibition (Homo sapiens) [%] |
| --- | --- | --- | --- | --- | --- | --- | --- | --- | --- | --- |
| CN(Cc1ccccc1)Cc1ccc(C(=O)NCCc2c[nH]c3ccccc23)cc1 | 74 | 3.2 | 1.9 | 12 | 100 |  |  |  |  |  |
| COc1ccc2[nH]cc(CCNC(=O)c3ccc(CN(C)Cc4ccccc4)cc3)c2c1 | 71 | 2.5 | 6.1 | 36 | 100 | Active | Non-toxic | Non-toxic | Active |  |
| COc1ccccc1CN(C)Cc1ccc(C(=O)NCCc2c[nH]c3ccccc23)cc1 | 88 | 2.9 | 4.7 | 12 | 100 | Active | Non-toxic | Non-toxic | Active |  |
| CN(Cc1ccc(C(=O)NCCc2c[nH]c3ccccc23)cc1)Cc1cccc(Cl)c1 | 71 | 2.9 | 5.1 | 12 | 100 |  |  |  |  | 38 |
| COc1ccc2c(CCNC(=O)c3ccc(CN(C)Cc4ccccc4)cc3)c[nH]c2c1 | 72 | 1.5 | 4.1 | 12 | 100 |  |  |  |  |  |
| COc1ccc2[nH]cc(CCNC(=O)c3ccc(CN(C)Cc4ccccc4OC)cc3)c2c1 | 99 | 2.4 | 5.4 | 12 | 100 |  |  |  |  | 47 |
| COc1cccc(CN(C)Cc2ccc(C(=O)NCCc3c[nH]c4ccccc34)cc2)c1 | 88 | 2.7 | 3.8 | 12 | 100 |  |  |  |  |  |
| CC(=O)NCCc1c(Cc2ccccc2)[nH]c2ccccc12 |  |  |  |  |  | inactive |  |  | inactive |  |
| COc1ccc2[nH]cc(CCNC(C)=O)c2c1 |  | 2.4 |  |  |  | Active |  |  | Active |  |
| CN(Cc1ccccc1)Cc1ccc(C(=O)NCCc2c[nH]c3cc(F)ccc23)cc1 | 66 | 2.1 | 2.5 | 12 | 100 |  |  |  |  |  |
| COc1ccc2c(CCNC(=O)c3ccc(CN(C)Cc4cccc(Cl)c4)cc3)c[nH]c2c1 | 79 | 1.8 | 2.1 | 12 | 100 |  |  |  |  | 22 |
| COc1cccc(CN(C)Cc2ccc(C(=O)NCCc3c[nH]c4ccc(OC)cc34)cc2)c1 | 87 | 2.5 | 6.8 | 40 | 100 | Active | Non-toxic | Non-toxic | Active | 45 |
| CN(Cc1ccc(C(=O)NCCc2c[nH]c3ccccc23)cc1)Cc1ccccc1Cl | 58 | 2.8 | 3.8 | 12 | 100 |  |  |  |  | 38 |
| COc1ccc2[nH]cc(CCNC(=O)c3ccc(CN(C)Cc4cccc(Cl)c4)cc3)c2c1 | 79 | 2.6 | 5.6 | 12 | 100 |  |  |  |  | 38 |
| CN(Cc1ccccc1)Cc1ccc(C(=O)NCCc2c[nH]c3ccc(O)cc23)cc1 | 50 | 4.3 | 4.2 | 12 | 100 |  |  |  |  |  |
| COc1ccc2[nH]cc(CCNC(=O)c3ccc(CN(C)Cc4ccccc4Cl)cc3)c2c1 | 59 | 2.5 | 2.6 | 27 | 100 |  |  |  |  | 37 |
